Literature values, collected in patent US20210379090A1, “REMDESIVIR ORAL DELIVERY SYSTEM” (ABON PHARMACEUTICALS, LLC, priority 2020, published 2021).

Experiments:
[1] = system: COVID-19; settings: received early within 10 days of symptom onset vs treated late after more than 10 days of symptoms
[2] = would likely result in almost complete first-pass clearance after oral delivery

## Remdesivir
[1]
  clinical outcome: improved outcomes
other
  solubility in water: practically insoluble
[2]
  hepatic stability: poor hepatic stability
